# In paper PMC8778187, “A New Oxygen Containing Pyclen-Type Ligand as a Manganese(II) Binder for MRI and ^52Mn PET Applications: Equilibrium, Kinetic, Relaxometric, Structural and Radiochemical Studies” (Molecules, 2022):
# Assays:
# [1] = Stability and protonation constants of Zn(II) complexes by pH-potentiometry; type: physicochemical; conditions: Zn^2+ complex; T = 25 °C, I = 0.15 M NaCl
# Experimental: (§1) The stability and protonation constants of the metal complexes formed with H2OPC2A were determined by pH-potentiometric titrations, but, for the Cu(II) complex, UV-Vis spectrophotometric measurements were also carried out to supplement the pH-potentiometric titration data (Figures S21 and S22, Supporting Information).
# (§2) Metal stock solutions were prepared from the highest analytical grade chemicals, and their concentrations were determined by complexometric titration with standardized Na2H2EDTA and eriochrome black T indicator in the presence of ascorbic acid, and potassium hydrogen tartrate for MnCl2, murexide indicator for CaCl2 and CuCl2, eriochrome black T for MgCl2 and xylenol orange in the presence of hexamethylenetetramine for the solution of ZnCl2. The concentration of the ligand stock solution was determined by pH-potentiometric titrations. The protonation constants of the ligand were determined by the pH potentiometric titrations with 0.15 M NaOH, using 0.0025 M ligand solutions. The ionic strength was set to 0.15 M by using NaCl. The titrated samples (starting volume of 6 mL) were stirred mechanically, and thermostated at 25 °C by a circulating water bath (±0.1 °C). […]
# To avoid the effect of CO2, N2 gas was bubbled through the solutions during the titrations process. […] For the calibration of the pH meter, KH-phtalate (pH = 4.005) and borax (pH = 9.177) buffers were used, and the H^+ ion concentrations were calculated from the measured pH values by applying the method proposed by Irving et al.. A solution of approximately 0.01 M HCl was titrated with a 0.15 M NaOH solution (0.15 or 1.00 M NaCl), and the differences between the measured and calculated pH values (for the points with pH < 2.4) were used to calculate the (H^+) from the pH values measured in the titration experiments. […] The stability constants of the metal complexes (except for Cu(II)) were determined using the direct pH-potentiometric method, by titrating samples with 1:1 metal-to-ligand ratios (the number of fitted data pairs were between 127–212), allowing 1 min for the sample equilibration to occur. […]
# [2] = Stability and protonation constants of Mg(II) complexes by pH-potentiometry; type: physicochemical; conditions: Mg^2+ complex; T = 25 °C, I = 0.15 M NaCl
# Experimental: as §1
# as §2, with “NaCl.” for “NaCl. The titrated samples (starting volume of 6 mL) were stirred mechanically, and thermostated at 25 °C by a circulating water bath (±0.1 °C).”
# To avoid the effect of CO2, N2 gas was bubbled through the solutions during the titrations process. […] For the calibration of the pH meter, KH-phtalate (pH = 4.005) and borax (pH = 9.177) buffers were used, and the H^+ ion concentrations were calculated from the measured pH values by applying the method proposed by Irving et al.. […]
smiles,measurement,setting,value
"O=C(O)CN1CCOCCN(CC(=O)O)Cc2cccc(n2)C1 [H23,9-OPC2A, 6-Oxa-3,9,15-triazabicyclo(9.3.1)pentadeca-1(15),11,13-triene-3,9-diacetic acid]",log KMnHL,[1],2.08(3)
same,log KMnL,[1],14.81(1)
same,log KMnLOH,[1],10.95(2)
same,log KMgL (stability constant of the Mg(II) complex),[2],7.02(1)
